In PubChem BioAssay AID330 (DTP/NCI, 2004):
“And” between values parts separate entries of the source, which are not always exact repeats. Equal entries are not always repeated. Toxic doses and inconclusive results are not listed. Rule for the calls: active = survival T/C of 150% or more; inactive = T/C below 125% in these data. Peptide text beside a SMILES is read from it. * marks the point of attachment. Cbz = O=C(OCc1ccccc1)*

Tested on: P388 leukemia ip, CD2F1 mice, survival T/C
Experiment: NCI In Vivo Anticancer Drug Screen. Data for tumor model P388 Leukemia (intraperitoneal) in CD2F1 (CDF1) mice
Conditions: endpoint: median survival time, higher = longer survival
Summary of the method: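 Mice carrying the transplanted tumor received test compound or vehicle. Survival was recorded in each group, and the value is the treated-group measurement divided by that of the vehicle-treated control group.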

[1] = dose: 50.0 mg/kg/injection, schedule: Q01DX009 (ip), vehicle: Klucel (hydroxypropylcellulose) (HPC)
[2] = dose: 100.0 mg/kg/injection, schedule: Q01DX009 (ip), vehicle: Klucel (hydroxypropylcellulose) (HPC)
[3] = dose: 200.0 mg/kg/injection, schedule: Q01DX009 (ip), vehicle: Klucel (hydroxypropylcellulose) (HPC)
[4] = dose: 50.0 mg/kg/injection, schedule: Q01DX009 (ip), vehicle: saline with Tween-80

Measured: T/C

CN(C)c1ccc(C(c2cc3c(cc2O)OCO3)N2CCOCC2)cc1 (centres undefined)
inactive: dose: 60.0 mg/kg/injection, schedule: Q01DX005 (ip), vehicle: saline with Tween-80 113 % of control | dose: 120.0 mg/kg/injection, schedule: Q01DX005 (ip), vehicle: saline with Tween-80 120 % of control | dose: 240.0 mg/kg/injection, schedule: Q01DX005 (ip), vehicle: saline with Tween-80 108 % of control

OC(CCC1OCCO1)(CCC1OCCO1)c1ccccc1
inactive: [1] 97 % of control | [2] 103 % of control | [3] 93 % of control

CCO/C([O-])=C(\C=N\S(=O)(=O)c1ccc(C)cc1)[n+]1ccc(C)cc1
inactive: dose: 100.0 mg/kg/injection, schedule: Q04DX003 (ip), vehicle: Klucel (hydroxypropylcellulose) (HPC) 103 % of control | dose: 200.0 mg/kg/injection, schedule: Q04DX003 (ip), vehicle: Klucel (hydroxypropylcellulose) (HPC) 100 % of control | dose: 400.0 mg/kg/injection, schedule: Q04DX003 (ip), vehicle: Klucel (hydroxypropylcellulose) (HPC) 101 % of control

COc1cccc2c1C(=O)c1c(O)c3c(c(O)c1C2=O)CC(O)(C(C)=O)CC3O (centres undefined)
inactive: dose: 6.25 mg/kg/injection, schedule: Q01DX009 (ip), vehicle: other 100 % of control | dose: 12.5 mg/kg/injection, schedule: Q01DX009 (ip), vehicle: other 92 % of control | dose: 25.0 mg/kg/injection, schedule: Q01DX009 (ip), vehicle: other 91 % of control | dose: 50.0 mg/kg/injection, schedule: Q01DX009 (ip), vehicle: other 91 % of control | dose: 100.0 mg/kg/injection, schedule: Q01DX009 (ip), vehicle: other 119 % of control | dose: 200.0 mg/kg/injection, schedule: Q01DX009 (ip), vehicle: other 92 % of control | dose: 400.0 mg/kg/injection, schedule: Q01DX009 (ip), vehicle: other 98 % of control

FC(F)(F)C1(C(F)(F)F)[O][Sb]([c]2ccccc2)([c]2ccccc2)([c]2ccccc2)[O]1
inactive: [1] 100 % of control | [2] 101 % of control

CC1SC(c2ccc(Cl)cc2)N2C(=O)C(C)SC(c3ccc(Cl)cc3)N2C1=O (centres undefined)
inactive: [4] 87 % of control | dose: 100.0 mg/kg/injection, schedule: Q01DX009 (ip), vehicle: saline with Tween-80 86 % of control

COc1cccc(-c2cc(C(=O)O)c3cc4ccccc4cc3n2)c1OC
inactive: [1] 100 % of control | [2] 101 % of control | [3] 100 % of control

COc1cc(-c2[o+]c3cc(O)cc(O)c3cc2OC2OC(CO)C(O)C(O)C2O)cc(OC)c1O (centres undefined)
inactive: dose: 25.0 mg/kg/injection, schedule: Q01DX009 (ip), vehicle: saline sonified 100 % of control | dose: 50.0 mg/kg/injection, schedule: Q01DX009 (ip), vehicle: saline sonified 100 % of control | dose: 100.0 mg/kg/injection, schedule: Q01DX009 (ip), vehicle: saline sonified 100 % of control

OCC(F)(F)C(F)(F)C(F)(F)F
inactive: dose: 100.0 mg/kg/injection, schedule: Q04DX003 (ip), vehicle: saline 104 % of control | dose: 200.0 mg/kg/injection, schedule: Q04DX003 (ip), vehicle: saline 90 % of control | dose: 400.0 mg/kg/injection, schedule: Q04DX003 (ip), vehicle: saline 90 % of control

NC(=O)C(Cc1ccccc1)NC(=O)C(Cc1ccccc1)NC(=O)C(Cc1ccccc1)NC(=O)OCc1ccccc1 (stereo not drawn) (Cbz-Phe-Phe-Phe-NH2; configuration not given here)
inactive: dose: 50.0 mg/kg/injection, schedule: Q01DX005 (ip), vehicle: saline with Tween-80 91 % of control | dose: 100.0 mg/kg/injection, schedule: Q01DX005 (ip), vehicle: saline with Tween-80 97 % of control | dose: 200.0 mg/kg/injection, schedule: Q01DX005 (ip), vehicle: saline with Tween-80 102 % of control

CC(c1ccccc1)C(OC(=O)c1ccc([N+](=O)[O-])cc1)c1ccccc1 (centres undefined)
inactive: dose: 12.5 mg/kg/injection, schedule: Q01DX009 (ip), vehicle: saline with Tween-80 100 % of control | dose: 25.0 mg/kg/injection, schedule: Q01DX009 (ip), vehicle: saline with Tween-80 100 % of control | [4] 90 % of control

CCNC(=S)N/N=C/c1nccc(-c2ccccc2)c1C
inactive: dose: 25.0 mg/kg/injection, schedule: Q01DX009 (ip), vehicle: saline 117 % of control and 94 % of control | dose: 50.0 mg/kg/injection, schedule: Q01DX009 (ip), vehicle: saline 100 % of control and 103 % of control (2×) | dose: 100.0 mg/kg/injection, schedule: Q01DX009 (ip), vehicle: saline 99 % of control and 108 % of control | dose: 200.0 mg/kg/injection, schedule: Q01DX009 (ip), vehicle: saline 100 % of control
